# Data published in US4345938A, “Herbicidal 2-haloacetanilides” (Monsanto Company, priority 1980, dated 1982).
# Where two headings read alike, the source gives them in different places.
# What was measured:
# Assay type in all cases: in vivo
# Rice = experiment: Field transplant rice test, applied 0 DAT, rice injury; conditions: for inhibition at 375 g/ha / inhibition at 750 g/ha / inhibition at 1500 g/ha / inhibition at 3000 g/ha: Oryza sativa, 0 h, read-out: Percent Inhibition, Rice; for inhibition at 375 g/ha: 0.375 Kg/Ha; for inhibition at 750 g/ha: 0.75 Kg/Ha; for inhibition at 1500 g/ha: 1.5 Kg/Ha; for inhibition at 3000 g/ha: 3.0 Kg/Ha
# Method: (§1) In further comparative tests, a preferred compound of this invention (Example 1) was tested in the field with prior art Compounds A-D. These tests were conducted under conditions reflecting herbicide application times generally favorable to all herbicides in the test. The timing of application of herbicides to transplant rice is very important, whether, as in some instances, prior to transplanting the rice; in other instances, at the time of transplanting or else after transplanting. Application times are conventionally referred to as "days before transplant" (DBT) or "days after transplant" ("DAT"). The field test data in Table IV was obtained from a test in which the herbicides were applied at the time of transplant, i.e., "0 DAT", with observations being made weekly up to six weeks after transplant ("WAT") beginning at two weeks after transplant; for illustrative and representative purposes, only the early, middle and late period observations, i.e., 2 WAT, 4 WAT and 6 WAT, are shown in Table IV. The data in Table IV is for rates of application common to all herbicides in the test, i.e., from 3.0 kg/ha (2.67 lb/A) down to 0.375 kg/ha (0.34 lb/A). All herbicides were applied at their actual or expected use rates, i.e., as granules containing 2.5% by weight herbicide for the compound of Example 1, Compounds B, C and D and 5.0% by weight for Compound A.
# Monochoria vaginalis = experiment: Field transplant rice test, applied 0 DAT, MV; conditions: Pontederia vaginalis, 0 h, read-out: Percent Inhibition, MV; for inhibition at 375 g/ha: 0.375 Kg/Ha; for inhibition at 750 g/ha: 0.75 Kg/Ha; for inhibition at 1500 g/ha: 1.5 Kg/Ha; for inhibition at 3000 g/ha: 3.0 Kg/Ha
# Method: (§2) The test data in Table III for all compounds was obtained under identical test conditions. The weeds used in the tests herein have the following abbreviations in the tables: Echinochloa crus-galli (EC), Monochloria vaginalis (MV), Cyperus Serotinus (CS), Eleocharis Kuroguwai (EK) and Sagittaria trifolia (ST).
# as §1
# Cyperus serotinus = experiment: Field transplant rice test, applied 0 DAT, CS; conditions: 0 h, read-out: Percent Inhibition, CS; for inhibition at 375 g/ha: 0.375 Kg/Ha; for inhibition at 750 g/ha: 0.75 Kg/Ha; for inhibition at 1500 g/ha: 1.5 Kg/Ha; for inhibition at 3000 g/ha: 3.0 Kg/Ha
# Method: as §2, §1
# Eleocharis kuroguwai [1] = experiment: Field transplant rice test, applied 0 DAT, EK; conditions: 0 h, read-out: Percent Inhibition, EK; for inhibition at 375 g/ha: 0.375 Kg/Ha; for inhibition at 750 g/ha: 0.75 Kg/Ha; for inhibition at 1500 g/ha: 1.5 Kg/Ha; for inhibition at 3000 g/ha: 3.0 Kg/Ha
# Method: as §2, §1
# Eleocharis kuroguwai [2] = experiment: Field transplant rice test, applied 9 DAT, EK; conditions: for inhibition at 375 g/ha / inhibition at 750 g/ha / inhibition at 1500 g/ha / inhibition at 3000 g/ha: Eleocharis kuroguwai, 216 h, read-out: Percent Inhibition, EK; for inhibition at 375 g/ha: 0.375 Kg/Ha; for inhibition at 750 g/ha: 0.75 Kg/Ha; for inhibition at 1500 g/ha: 1.5 Kg/Ha; for inhibition at 3000 g/ha: 3.0 Kg/Ha
# Text: In the discussion of data below, occasional reference is made to herbicide application rates symbolized as "GR15 " and "GR85 "; these rates are given in kilograms per hectare (kg/ha) which are convertible into pounds per acre (lbs/A) by dividing the kg/ha rate by 1.12.
# A further guide to the effectiveness of a chemical as a selective herbicide is the "selectivity factor" ("SF") for a herbicide in given crops and weeds. The selectivity factor is a measure of the relative degree of crop safety and weed injury and is expressed in terms of the GR15 /GR85 ratio, i.e., the GR15 rate for the crop divided by the GR85 rate for the weed, both rates in kg/ha (lb/A.)
# as §2, §1
# In Table V are presented field data showing the relative performance of the compound of Example 1 and Compounds A-D applied 9 DAT, with observations being made weekly from 3 WAT to 7 WAT; again, for illustrative and representative purposes, only the early, middle and late period observations are reported in Table V, the herbicide rates and concentrations of active ingredients the same as is shown in Table IV.
smiles,measurement,setting,value
"CCCCOCCN(C(=O)CCl)c1c(CC)cccc1CC [Compound B, 2',6'-diethyl-N-(n-butoxyethyl)-2-chloroacetanilide]",inhibition at 375 g/ha,Rice; 2 WAT,7%
same,inhibition at 375 g/ha,Rice; 4 WAT,3%
same,inhibition at 375 g/ha,Rice; 6 WAT,7%
same,inhibition at 750 g/ha,Rice; 2 WAT,3%
same,inhibition at 750 g/ha,Rice; 4 WAT,2%
same,inhibition at 750 g/ha,Rice; 6 WAT,3%
same,inhibition at 1500 g/ha,Rice; 2 WAT,10%
same,inhibition at 1500 g/ha,Rice; 4 WAT,3%
same,inhibition at 1500 g/ha,Rice; 6 WAT,0%
same,inhibition at 3000 g/ha,Rice; 2 WAT,7%
same,inhibition at 3000 g/ha,Rice; 4 WAT,2%
same,inhibition at 3000 g/ha,Rice; 6 WAT,3%
same,inhibition at 375 g/ha,Monochoria vaginalis; 2 WAT,97%
same,inhibition at 375 g/ha,Monochoria vaginalis; 4 WAT,90%
same,inhibition at 375 g/ha,Monochoria vaginalis; 6 WAT,80%
same,inhibition at 750 g/ha,Monochoria vaginalis; 2 WAT,95%
same,inhibition at 750 g/ha,Monochoria vaginalis; 4 WAT,98%
same,inhibition at 750 g/ha,Monochoria vaginalis; 6 WAT,100%
same,inhibition at 1500 g/ha,Monochoria vaginalis; 2 WAT,98%
same,inhibition at 1500 g/ha,Monochoria vaginalis; 4 WAT,100%
same,inhibition at 1500 g/ha,Monochoria vaginalis; 6 WAT,100%
same,inhibition at 3000 g/ha,Monochoria vaginalis; 2 WAT,100%
same,inhibition at 3000 g/ha,Monochoria vaginalis; 4 WAT,100%
same,inhibition at 3000 g/ha,Monochoria vaginalis; 6 WAT,97%
same,inhibition at 375 g/ha,Cyperus serotinus; 2 WAT,62%
same,inhibition at 375 g/ha,Cyperus serotinus; 4 WAT,55%
same,inhibition at 375 g/ha,Cyperus serotinus; 6 WAT,3%
same,inhibition at 750 g/ha,Cyperus serotinus; 2 WAT,70%
same,inhibition at 750 g/ha,Cyperus serotinus; 4 WAT,53%
same,inhibition at 750 g/ha,Cyperus serotinus; 6 WAT,12%
same,inhibition at 1500 g/ha,Cyperus serotinus; 2 WAT,82%
same,inhibition at 1500 g/ha,Cyperus serotinus; 4 WAT,83%
same,inhibition at 1500 g/ha,Cyperus serotinus; 6 WAT,45%
same,inhibition at 3000 g/ha,Cyperus serotinus; 2 WAT,72%
same,inhibition at 3000 g/ha,Cyperus serotinus; 4 WAT,62%
same,inhibition at 3000 g/ha,Cyperus serotinus; 6 WAT,37%
same,inhibition at 375 g/ha,Eleocharis kuroguwai [1]; 2 WAT,48%
same,inhibition at 375 g/ha,Eleocharis kuroguwai [1]; 4 WAT,37%
same,inhibition at 375 g/ha,Eleocharis kuroguwai [1]; 6 WAT,7%
same,inhibition at 750 g/ha,Eleocharis kuroguwai [1]; 2 WAT,63%
same,inhibition at 750 g/ha,Eleocharis kuroguwai [1]; 4 WAT,42%
same,inhibition at 750 g/ha,Eleocharis kuroguwai [1]; 6 WAT,0%
same,inhibition at 1500 g/ha,Eleocharis kuroguwai [1]; 2 WAT,73%
same,inhibition at 1500 g/ha,Eleocharis kuroguwai [1]; 4 WAT,65%
same,inhibition at 1500 g/ha,Eleocharis kuroguwai [1]; 6 WAT,17%
same,inhibition at 3000 g/ha,Eleocharis kuroguwai [1]; 2 WAT,100%
same,inhibition at 3000 g/ha,Eleocharis kuroguwai [1]; 4 WAT,94%
same,inhibition at 3000 g/ha,Eleocharis kuroguwai [1]; 6 WAT,72%
same,"selectivity factor (GR15/GR85), EK in transplant rice",Eleocharis kuroguwai [2]; 3 WAT,non-selective
same,inhibition at 375 g/ha,Eleocharis kuroguwai [2]; 3 WAT,27%
same,inhibition at 375 g/ha,Eleocharis kuroguwai [2]; 5 WAT,3%
same,inhibition at 375 g/ha,Eleocharis kuroguwai [2]; 7 WAT,0%
same,inhibition at 750 g/ha,Eleocharis kuroguwai [2]; 3 WAT,28%
same,inhibition at 750 g/ha,Eleocharis kuroguwai [2]; 5 WAT,5%
same,inhibition at 750 g/ha,Eleocharis kuroguwai [2]; 7 WAT,0%
same,inhibition at 1500 g/ha,Eleocharis kuroguwai [2]; 3 WAT,42%
same,inhibition at 1500 g/ha,Eleocharis kuroguwai [2]; 5 WAT,32%
same,inhibition at 1500 g/ha,Eleocharis kuroguwai [2]; 7 WAT,0%
same,inhibition at 3000 g/ha,Eleocharis kuroguwai [2]; 3 WAT,55%
same,inhibition at 3000 g/ha,Eleocharis kuroguwai [2]; 5 WAT,43%
same,inhibition at 3000 g/ha,Eleocharis kuroguwai [2]; 7 WAT,18%
"CCCCOCN(C(=O)CCl)c1c(C)cccc1C(C)(C)C [Compound C, 2'-methyl-6'-tert-butyl-N-(n-butoxymethyl)-2-chloroacetanilide]",injury rate in rice,"Rice; 1.5 kg/ha (1.34 lb/A), after 4 WAT",greater than 15%
same,inhibition at 375 g/ha,Rice; 2 WAT,3%
same,inhibition at 375 g/ha,Rice; 4 WAT,0%
same,inhibition at 375 g/ha,Rice; 6 WAT,0%
same,inhibition at 750 g/ha,Rice; 2 WAT,2%
same,inhibition at 750 g/ha,Rice; 4 WAT,2%
same,inhibition at 750 g/ha,Rice; 6 WAT,2%
same,inhibition at 1500 g/ha,Rice; 2 WAT,12%
same,inhibition at 1500 g/ha,Rice; 4 WAT,18%
same,inhibition at 1500 g/ha,Rice; 6 WAT,18%
same,inhibition at 3000 g/ha,Rice; 2 WAT,22%
same,inhibition at 3000 g/ha,Rice; 4 WAT,27%
same,inhibition at 3000 g/ha,Rice; 6 WAT,30%
same,inhibition at 375 g/ha,Monochoria vaginalis; 2 WAT,100%
same,inhibition at 375 g/ha,Monochoria vaginalis; 4 WAT,100%
same,inhibition at 375 g/ha,Monochoria vaginalis; 6 WAT,97%
same,inhibition at 750 g/ha,Monochoria vaginalis; 2 WAT,100%
same,inhibition at 750 g/ha,Monochoria vaginalis; 4 WAT,100%
same,inhibition at 750 g/ha,Monochoria vaginalis; 6 WAT,100%
same,inhibition at 1500 g/ha,Monochoria vaginalis; 2 WAT,100%
same,inhibition at 1500 g/ha,Monochoria vaginalis; 4 WAT,100%
same,inhibition at 1500 g/ha,Monochoria vaginalis; 6 WAT,100%
same,inhibition at 3000 g/ha,Monochoria vaginalis; 2 WAT,100%
same,inhibition at 3000 g/ha,Monochoria vaginalis; 4 WAT,100%
same,inhibition at 3000 g/ha,Monochoria vaginalis; 6 WAT,100%
same,inhibition at 375 g/ha,Cyperus serotinus; 2 WAT,93%
same,inhibition at 375 g/ha,Cyperus serotinus; 4 WAT,92%
same,inhibition at 375 g/ha,Cyperus serotinus; 6 WAT,72%
same,inhibition at 750 g/ha,Cyperus serotinus; 2 WAT,70%
same,inhibition at 750 g/ha,Cyperus serotinus; 4 WAT,82%
same,inhibition at 750 g/ha,Cyperus serotinus; 6 WAT,77%
same,inhibition at 1500 g/ha,Cyperus serotinus; 2 WAT,93%
same,inhibition at 1500 g/ha,Cyperus serotinus; 4 WAT,99%
same,inhibition at 1500 g/ha,Cyperus serotinus; 6 WAT,100%
same,inhibition at 3000 g/ha,Cyperus serotinus; 2 WAT,95%
same,inhibition at 3000 g/ha,Cyperus serotinus; 4 WAT,100%
same,inhibition at 3000 g/ha,Cyperus serotinus; 6 WAT,100%
same,inhibition at 375 g/ha,Eleocharis kuroguwai [1]; 2 WAT,63%
same,inhibition at 375 g/ha,Eleocharis kuroguwai [1]; 4 WAT,52%
same,inhibition at 375 g/ha,Eleocharis kuroguwai [1]; 6 WAT,18%
same,inhibition at 750 g/ha,Eleocharis kuroguwai [1]; 2 WAT,68%
same,inhibition at 750 g/ha,Eleocharis kuroguwai [1]; 4 WAT,58%
same,inhibition at 750 g/ha,Eleocharis kuroguwai [1]; 6 WAT,18%
same,inhibition at 1500 g/ha,Eleocharis kuroguwai [1]; 2 WAT,85%
same,inhibition at 1500 g/ha,Eleocharis kuroguwai [1]; 4 WAT,93%
same,inhibition at 1500 g/ha,Eleocharis kuroguwai [1]; 6 WAT,67%
same,inhibition at 3000 g/ha,Eleocharis kuroguwai [1]; 2 WAT,82%
same,inhibition at 3000 g/ha,Eleocharis kuroguwai [1]; 4 WAT,90%
same,inhibition at 3000 g/ha,Eleocharis kuroguwai [1]; 6 WAT,80%
same,inhibition at 375 g/ha,Eleocharis kuroguwai [2]; 3 WAT,52%
same,inhibition at 375 g/ha,Eleocharis kuroguwai [2]; 5 WAT,23%
same,inhibition at 375 g/ha,Eleocharis kuroguwai [2]; 7 WAT,15%
same,inhibition at 750 g/ha,Eleocharis kuroguwai [2]; 3 WAT,75%
same,inhibition at 750 g/ha,Eleocharis kuroguwai [2]; 5 WAT,68%
same,inhibition at 750 g/ha,Eleocharis kuroguwai [2]; 7 WAT,32%
same,inhibition at 1500 g/ha,Eleocharis kuroguwai [2]; 3 WAT,70%
same,inhibition at 1500 g/ha,Eleocharis kuroguwai [2]; 5 WAT,77%
same,inhibition at 1500 g/ha,Eleocharis kuroguwai [2]; 7 WAT,38%
same,inhibition at 3000 g/ha,Eleocharis kuroguwai [2]; 3 WAT,83%
same,inhibition at 3000 g/ha,Eleocharis kuroguwai [2]; 5 WAT,93%
same,inhibition at 3000 g/ha,Eleocharis kuroguwai [2]; 7 WAT,74%
same,"selectivity factor (GR15/GR85), EK in transplant rice",Eleocharis kuroguwai [2]; at 5 WAT,greater than 1
